In patent US20240270821A1, “GIP/GLP1/GCG TRI-RECEPTOR AGONISTS AND USES THEREOF” (priority 2023, published 2024):

Assays:
Type in all cases: cell-based
hGLP-1R [1] = biological target: T1, hGLP-1R (Homo sapiens, UniProt P43220); assay: Functional cAMP activation in the presence of 0.1% casein (no HSA); settings: in the presence of 0.1% casein (no HSA); geometric mean; read-out: Relative cAMP EC50, hGLP-1R;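 also: intracellular cAMP rise after 30 min at 37 °C read by HTRF, normalized between buffer only (0%) and maximal control ligand (100%), four-parameter variable-slope fit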
T1 sequence (P43220 24-463): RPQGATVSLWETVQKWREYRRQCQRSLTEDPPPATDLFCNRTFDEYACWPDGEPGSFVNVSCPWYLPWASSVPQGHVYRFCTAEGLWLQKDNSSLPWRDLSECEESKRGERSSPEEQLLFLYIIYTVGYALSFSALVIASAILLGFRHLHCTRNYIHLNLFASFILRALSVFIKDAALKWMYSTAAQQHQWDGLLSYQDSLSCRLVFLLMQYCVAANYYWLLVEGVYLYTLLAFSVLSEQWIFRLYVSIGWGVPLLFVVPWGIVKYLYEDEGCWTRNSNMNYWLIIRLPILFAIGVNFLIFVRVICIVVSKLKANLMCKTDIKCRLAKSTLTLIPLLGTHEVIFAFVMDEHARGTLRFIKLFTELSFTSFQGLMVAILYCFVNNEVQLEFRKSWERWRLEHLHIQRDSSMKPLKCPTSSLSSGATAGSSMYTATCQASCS

hGIPR [2] = biological target: T2, hGIPR (Homo sapiens, UniProt P48546); assay: Functional cAMP activity in the presence of 1% HSA; settings: read-out: cAMP Rel EC50, hGIPR
T2 sequence (P48546 22-466): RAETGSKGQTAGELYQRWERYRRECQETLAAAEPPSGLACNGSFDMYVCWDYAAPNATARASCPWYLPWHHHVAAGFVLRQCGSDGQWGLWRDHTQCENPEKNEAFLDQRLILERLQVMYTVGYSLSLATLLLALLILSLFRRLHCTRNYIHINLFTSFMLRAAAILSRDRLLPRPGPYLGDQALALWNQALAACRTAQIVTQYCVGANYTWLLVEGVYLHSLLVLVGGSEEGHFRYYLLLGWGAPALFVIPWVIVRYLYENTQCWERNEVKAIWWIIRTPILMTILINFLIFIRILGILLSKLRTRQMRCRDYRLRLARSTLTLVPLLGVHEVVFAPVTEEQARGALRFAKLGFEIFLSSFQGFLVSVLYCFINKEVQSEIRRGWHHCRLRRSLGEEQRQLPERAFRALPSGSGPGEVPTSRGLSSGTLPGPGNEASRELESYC

hGIPR [3] = biological target: T2, hGIPR; assay: Functional cAMP activation in the presence of 0.1% casein (no HSA); settings: in the presence of 0.1% casein (no HSA); geometric mean; read-out: Relative cAMP EC50, hGIPR;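 also: intracellular cAMP rise after 30 min at 37 °C read by HTRF against a standard curve, scaled between buffer alone (0%) and top control ligand concentration (100%), four-parameter fit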
hGLP-1R [4] = biological target: T1, hGLP-1R; assay: Functional cAMP activity in the presence of 1% HSA; settings: read-out: cAMP Rel EC50, hGLP-1R
human GcgR = human GcgR (Homo sapiens, UniProt P47871); assay: Functional cAMP activity in the presence of 1% HSA; settings: read-out: cAMP Rel EC50, hGcgR
human GcgR, sequence (P47871 26-477): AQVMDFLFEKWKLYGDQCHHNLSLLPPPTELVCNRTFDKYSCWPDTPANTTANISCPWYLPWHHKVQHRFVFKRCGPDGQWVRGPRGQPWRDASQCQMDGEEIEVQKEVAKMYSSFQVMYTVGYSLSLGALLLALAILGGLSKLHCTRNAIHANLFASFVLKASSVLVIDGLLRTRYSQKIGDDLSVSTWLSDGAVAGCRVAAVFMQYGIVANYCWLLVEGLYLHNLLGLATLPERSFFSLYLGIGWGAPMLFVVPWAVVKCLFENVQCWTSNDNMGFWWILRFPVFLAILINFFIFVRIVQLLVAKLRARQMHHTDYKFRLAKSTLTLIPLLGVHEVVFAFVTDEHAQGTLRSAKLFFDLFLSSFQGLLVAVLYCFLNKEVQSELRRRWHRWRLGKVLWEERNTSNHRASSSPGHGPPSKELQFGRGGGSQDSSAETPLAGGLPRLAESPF

hGcgR = hGcgR (Homo sapiens, UniProt P47871); assay: Functional cAMP activation in the presence of 0.1% casein (no HSA); settings: in the presence of 0.1% casein (no HSA); geometric mean; read-out: Relative cAMP EC50, hGcgR;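 also: intracellular cAMP rise after 30 min at 37 °C, read by HTRF against a cAMP standard curve, scaled from buffer only (0%) to maximal control ligand response (100%)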
hGcgR, sequence (P47871 26-477): as above

SMILES	EC50 (hGLP-1R [1])	EC50 (hGIPR [2])	EC50 (hGIPR [3])	EC50 (hGLP-1R [4])	EC50 (human GcgR)	EC50 (hGcgR)
CC[C@H](C)[C@H](NC(=O)[C@H](Cc1ccccc1)NC(=O)[C@H](C)NC(=O)[C@](C)(Cc1ccncc1)NC(=O)[C@H](CCC(N)=O)NC(=O)[C@H](C)NC(=O)[C@H](CCCCNC(=O)COCCOCCNC(=O)CC[C@H](NC(=O)CC[C@H](NC(=O)CCCCCCCCCCCCCCCCC(=O)O)C(=O)O)C(=O)O)NC(=O)[C@H](CCCN)NC(=O)[C@H](CC(=O)O)NC(=O)[C@H](CC(C)C)NC(=O)[C@](C)(CC(C)C)NC(=O)[C@H](CCC(N)=O)NC(=O)[C@H](CO)NC(=O)[C@H](Cc1ccncc1)NC(=O)[C@H](CC(=O)O)NC(=O)[C@H](CO)NC(=O)[C@@H](NC(=O)[C@H](Cc1ccccc1)NC(=O)[C@@H](NC(=O)CNC(=O)[C@H](CCC(N)=O)NC(=O)C(C)(C)NC(=O)[C@@H](N)Cc1ccc(O)cc1)[C@@H](C)O)[C@@H](C)O)C(=O)N[C@@H](CCC(=O)O)C(=O)N[C@@H](Cc1ccc(O)cc1)C(=O)N[C@@H](CC(C)C)C(=O)N[C@H](C(=O)N[C@@H](CCC(=O)O)C(=O)N[C@H](C)C(=O)NCC(=O)N1CCC[C@H]1C(=O)N[C@@H](CO)C(=O)N[C@@H](CO)C(=O)NCC(=O)N[C@@H](C)C(=O)N1CCC[C@H]1C(=O)N1CCC[C@H]1C(=O)N1CCC[C@H]1C(=O)N[C@@H](CCC(=O)O)C(=O)NCC(=O)N[C@@H](CO)C(N)=O)[C@@H](C)CC [Example 1020]	2.29 nM	27.3 nM	0.309 nM	146 nM	478 nM	5.87 nM
CC[C@H](C)[C@H](NC(=O)[C@H](Cc1ccccc1)NC(=O)[C@H](C)NC(=O)[C@](C)(Cc1ccncc1)NC(=O)[C@H](CCC(N)=O)NC(=O)[C@H](C)NC(=O)[C@H](CCCCNC(=O)COCCOCCNC(=O)CC[C@H](NC(=O)CC[C@H](NC(=O)CCCCCCCCCCCCCCCCC(=O)O)C(=O)O)C(=O)O)NC(=O)[C@H](CCCN)NC(=O)[C@H](CC(=O)O)NC(=O)[C@H](CC(C)C)NC(=O)[C@](C)(CC(C)C)NC(=O)[C@H](CCC(N)=O)NC(=O)[C@H](CO)NC(=O)[C@H](Cc1ccncc1)NC(=O)[C@H](CC(=O)O)NC(=O)[C@H](CO)NC(=O)[C@@H](NC(=O)[C@H](Cc1ccccc1)NC(=O)[C@@H](NC(=O)CNC(=O)[C@H](CCC(N)=O)NC(=O)C(C)(C)NC(=O)[C@@H](N)Cc1ccc(O)cc1)[C@@H](C)O)[C@@H](C)O)C(=O)N[C@@H](CCC(=O)O)C(=O)N[C@@H](Cc1ccc(O)cc1)C(=O)N[C@@H](CC(C)C)C(=O)N[C@H](C(=O)N[C@@H](CCC(=O)O)C(=O)N[C@H](C)C(=O)NCC(=O)N1CCC[C@H]1C(=O)N[C@@H](CO)C(=O)N[C@@H](CO)C(=O)NCC(=O)N[C@@H](C)C(=O)N1CCC[C@H]1C(=O)N1CCC[C@H]1C(=O)N1CCC[C@H]1C(=O)N[C@@H](CO)C(=O)NCC(=O)N[C@@H](CO)C(=O)N[C@@H](CCC(=O)O)C(N)=O)[C@@H](C)CC [Example 1022]	3.28 nM	27.9 nM	0.35 nM	203 nM	586 nM	6.93 nM
